The values below come from publication PMC3463507 (ChemMedChem, 2012).

One may read the IC50 as the concentration that inhibits the measured activity by half. Lower therefore signals greater potency. For orientation: inhibition means the relative decrease from the control value, in per cent. The Kd is a measure of binding affinity in units of concentration.

Like-named read-outs stand apart in the source and are kept apart here.

Test [1] concerns the target T1, BaDHPS (Bacillus anthracis, UniProt Q81VW8). The experiment in a line: biochemical. As to conditions: for inhibition at 250 µM: read-out: Enzyme Inhibition Activity% @250μM. The format is biochemical.
For test [2], the target named is T1, BaDHPS. The format is binding. As to conditions: 25 °C, pH 7.6.
Test [3] concerns the target T1, BaDHPS. The experiment in a line: biochemical. The format is binding. To be noted: for SPR kd: 25 °C; for kon: read-out: SPR ka.

T1 sequence (Q81VW8 1-280): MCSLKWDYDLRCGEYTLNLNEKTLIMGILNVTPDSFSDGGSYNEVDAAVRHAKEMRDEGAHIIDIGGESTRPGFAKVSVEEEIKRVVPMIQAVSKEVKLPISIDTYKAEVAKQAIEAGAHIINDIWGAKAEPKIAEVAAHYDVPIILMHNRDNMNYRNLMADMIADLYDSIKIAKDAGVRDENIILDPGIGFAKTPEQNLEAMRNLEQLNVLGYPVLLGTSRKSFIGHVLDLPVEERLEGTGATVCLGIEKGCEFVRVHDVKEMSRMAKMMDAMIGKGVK

On to `COC(=O)CCc1n[nH]c2nc(N)[nH]c(=O)c2c1=O` [Compound 22, Methyl 3-(7-amino-4,5-dioxo-1,4,5,6-tetrahydropyrimido[4,5-c]pyridazin-3-yl)propanoate], for which, at BaDHPS [1], half-maximal inhibition (IC50) required 260000 nM and the inhibition at 250 µM was 33%.
The like results for `CC(CC(=O)O)c1nn(C)c2nc(N)[nH]c(=O)c2c1=O` (stereo not shown) [Compound 17, 3-(7-Amino-1-methyl-4,5-dioxo-1,4,5,6-tetrahydropyrimido[4,5-c]pyridazin-3-yl)butanoic acid] were, in that order, 145000 nM and 52.5%.
As to `Cn1nc(CCC(=O)O)c(=O)c2c(=O)[nH]c(N)nc21` [Compound 18, 3-(7-Amino-1-methyl-4,5-dioxo-1,4,5,6-tetrahydropyrimido[4,5-c]pyridazin-3-yl)propanoic acid], at BaDHPS [1], the inhibition at 250 µM came to 65%.
Regarding `CC(C(=O)O)c1n[nH]c2nc(N)[nH]c(=O)c2c1=O` (stereo not shown) [Compound 19, 2-(7-Amino-4,5-dioxo-1,4,5,6-tetrahydropyrimido[4,5-c]pyridazin-3-yl)propanoic acid], on BaDHPS [2], the “ITC N (stoichiometry of the interaction)” value is reported as 0.9, the “ITC ΔG” value was -9.65 kcal/mol, the “ITC ΔH” value is -8.7 kcal/mol and the “ITC −TΔS” value was -0.95 kcal/mol. The inhibition at 250 µM on BaDHPS [1] was 95.3%. Moreover, at BaDHPS [3], the SPR kd was 4.39(3) × 10^−2 s^−1 and the kon turned out to be 366000 M⁻¹ s⁻¹. The same molecule had a Kd at BaDHPS [3] (SPR KD) of 120 nM. The Kd at BaDHPS [3] (SPR KD(eq)) turned out to be 123 nM.
For `Nc1nc2[nH]nc(CCC(=O)O)c(=O)c2c(=O)[nH]1` [Compound 25, 3-(7-Amino-4,5-dioxo-1,4,5,6-tetrahydropyrimido[4,5-c]pyridazin-3-yl)propanoic acid], on BaDHPS [2], the “ITC N (stoichiometry of the interaction)” value was found to be 0.7, the “ITC ΔG” value was -8.94 kcal/mol, the “ITC ΔH” value is -10.4 kcal/mol and the “ITC −TΔS” value is recorded as 1.46 kcal/mol. Further, at BaDHPS [1], the IC50 came to 36000 nM and the inhibition at 250 µM came to 91.8%. Also, on BaDHPS [3], the SPR kd was 3.14(1) × 10^−1 s^−1 and the kon stood at 442000 M⁻¹ s⁻¹. Further, the Kd on BaDHPS [3] (read-out: SPR KD) is 710 nM. Also, the Kd at BaDHPS [3] (read-out: SPR KD(eq)) came to 713 nM.
`Cn1nc(C(=O)O)c(=O)c2c(=O)[nH]c(N)nc21` [Compound 5, 7-Amino-1-methyl-4,5-dioxo-1,4,5,6-tetrahydropyrimido[4,5-c]pyridazine-3-carboxylic acid]: at BaDHPS [1], the IC50 entry is recorded as “no detectable IC50 value” and the inhibition at 250 µM came out at 32.4%.
On to `Nc1nc2[nH]nc(CC(=O)O)c(=O)c2c(=O)[nH]1` [Compound 23, 2-(7-Amino-4,5-dioxo-1,4,5,6-tetrahydropyrimido[4,5-c]pyridazin-3-yl)acetic acid], for which, on BaDHPS [1], the IC50 stood at 18000 nM and the inhibition at 250 µM was 91%. Moreover, at BaDHPS [3], the SPR kd is recorded as 4.35(3) × 10^−2 s^−1 and the kon was determined as 419000 M⁻¹ s⁻¹. Also, binding at BaDHPS [3] (SPR KD) was put at a Kd of 104 nM. This molecule registered a Kd on BaDHPS [3] (SPR KD(eq)) of 110 nM.
For the molecule `CC(CC(=O)O)c1n[nH]c2nc(N)[nH]c(=O)c2c1=O` (stereo not shown) [Compound 24, 3-(7-Amino-4,5-dioxo-1,4,5,6-tetrahydropyrimido[4,5-c]pyridazin-3-yl)butanoic acid], at BaDHPS [2], the “ITC N (stoichiometry of the interaction)” value stood at 0.8, the “ITC ΔG” value was -8.6 kcal/mol, the “ITC ΔH” value was -7.5 kcal/mol and the “ITC −TΔS” value was -1.1 kcal/mol. Moreover, at BaDHPS [1], the IC50 was determined as 57000 nM and the inhibition at 250 µM is 75.8%. Besides, at BaDHPS [3], the SPR kd is given as 3.39(1) × 10^−1 s^−1 and the kon is 643000 M⁻¹ s⁻¹.
On to `Cn1nc(CC(=O)O)c(=O)c2c(=O)[nH]c(N)nc21` [Compound 16, 2-(7-Amino-1-methyl-4,5-dioxo-1,4,5,6-tetrahydropyrimido[4,5-c]pyridazin-3-yl)acetic acid], for which, at BaDHPS [1], the IC50 was 32000 nM and the inhibition at 250 µM worked out at 96%. On BaDHPS [3], the SPR kd is recorded as 6.94(6) × 10^−2 s^−1 and the kon turned out to be 342000 M⁻¹ s⁻¹. The same molecule gave a Kd on BaDHPS [3] (SPR KD) of 203 nM. This molecule displayed a Kd at BaDHPS [3] (SPR KD(eq)) of 190 nM.
